In patent US10906873B2, “Substituted cyclic amides as herbicides” (FMC Corporation, priority 2015, dated 2021):

The compounds below were run on galium (catchweed bedstraw, Galium aparine) (assay: Test A postemergence, galium). Details: 125 g ai/ha, 0 to 100 scale.
Format: in vivo
Source text: (§1) Seeds of plant species selected from barnyardgrass (Echinochloa crus-galli), crabgrass (large crabgrass, Digitaria sanguinalis), kochia (Kochia scoparia), ragweed (common ragweed, Ambrosia elatior), morningglory (Ipomoea spp.), velvetleaf (Abutilon theophrasti), ryegrass, It. (Italian ryegrass, Lolium multiflorum), foxtail, giant (giant foxtail, Setaria faberii), wheat (Triticum aestivum), corn (Zea mays), and pigweed (Amaranthus retroflexus), were planted into a blend of loam soil and sand and treated preemergence with a directed soil spray using test chemicals formulated in a non-phytotoxic solvent mixture which included a surfactant. At the same time, plants selected from these crop and weed species and also blackgrass (Alopecurus myosuroides), and galium (catchweed bedstraw, Galium aparine), were planted in pots containing the same blend of loam soil and sand and treated with postemergence applications of test chemicals formulated in the same manner. Plants ranged in height from 2 to 10 cm and were in the one- to two-leaf stage for the postemergence treatment. Treated plants and untreated controls were maintained in a greenhouse for approximately 10 d, after which time all treated plants were compared to untreated controls and visually evaluated for injury. Plant response ratings, summarized in Table A, are based on a 0 to 100 scale where 0 is no effect and 100 is complete control. A dash (-) response means no test result.

| SMILES | Plant response rating, Galium |
| --- | --- |
| O=C1NCC(Cc2ccccc2C(F)(F)F)C1C(=O)Nc1cccc(F)c1F (stereo not drawn) [Compound 9] | 0 |

Same assay, conditions: 500 g ai/ha, 0 to 100 scale

| SMILES | Plant response rating, Galium |
| --- | --- |
| O=C1NCC(Cc2ccccc2C(F)(F)F)C1C(=O)Nc1cccc(F)c1F (stereo not drawn) [Compound 9] | 0 |

The compounds below were run on kochia (Kochia scoparia) (assay: Test A preemergence, kochia). Details: 125 g ai/ha, 0 to 100 scale.
Format: in vivo
Source text: as §1

| SMILES | Plant response rating, Kochia |
| --- | --- |
| O=C1NCC(Cc2ccccc2C(F)(F)F)C1C(=O)Nc1cccc(F)c1F (stereo not drawn) [Compound 9] | 0 |

Same assay, conditions: 500 g ai/ha, 0 to 100 scale

| SMILES | Plant response rating, Kochia |
| --- | --- |
| O=C1NCC(Cc2ccccc2C(F)(F)F)C1C(=O)Nc1cccc(F)c1F (stereo not drawn) [Compound 9] | 50 |

What follows are compounds tested on ragweed (common ragweed, Ambrosia elatior) (assay: Test A postemergence, ragweed). Details: 125 g ai/ha, 0 to 100 scale.
Format: in vivo
Source text: as §1

| SMILES | Plant response rating, Ragweed |
| --- | --- |
| O=C1NCC(Cc2ccccc2C(F)(F)F)C1C(=O)Nc1cccc(F)c1F (stereo not drawn) [Compound 9] | 0 |

Same assay, conditions: 500 g ai/ha, 0 to 100 scale

| SMILES | Plant response rating, Ragweed |
| --- | --- |
| O=C1NCC(Cc2ccccc2C(F)(F)F)C1C(=O)Nc1cccc(F)c1F (stereo not drawn) [Compound 9] | 0 |

These compounds were tested on ragweed (common ragweed, Ambrosia elatior) (assay: Test A preemergence, ragweed). Details: 125 g ai/ha, 0 to 100 scale.
Format: in vivo
Source text: as §1

| SMILES | Plant response rating, Ragweed |
| --- | --- |
| O=C1NCC(Cc2ccccc2C(F)(F)F)C1C(=O)Nc1cccc(F)c1F (stereo not drawn) [Compound 9] | 0 |

Same assay, conditions: 500 g ai/ha, 0 to 100 scale

| SMILES | Plant response rating, Ragweed |
| --- | --- |
| O=C1NCC(Cc2ccccc2C(F)(F)F)C1C(=O)Nc1cccc(F)c1F (stereo not drawn) [Compound 9] | 30 |

Each compound was assayed on barnyardgrass (Echinochloa crus-galli) (assay: Test B flooded paddy test, barnyardgrass). Details: Flood, 500 g ai/ha; scale of 0 to 100 where 0 is no effect and 100 is complete control; 13 to 15 d.
Format: in vivo
Procedure: (§2) Plant species in the flooded paddy test selected from rice (Oryza sativa), sedge, umbrella (small-flower umbrella sedge, Cyperus difformis), ducksalad (Heteranthera limosa), and barnyardgrass (Echinochloa crus-galli) were grown to the 2-leaf stage for testing. At time of treatment, test pots were flooded to 3 cm above the soil surface, treated by application of test compounds directly to the paddy water, and then maintained at that water depth for the duration of the test. Treated plants and controls were maintained in a greenhouse for 13 to 15 d, after which time all species were compared to controls and visually evaluated. Plant response ratings, summarized in Table B, are based on a scale of 0 to 100 where 0 is no effect and 100 is complete control. A dash (-) response means no test result.

| SMILES | Plant response rating, Barnyardgrass |
| --- | --- |
| O=C1NCC(Cc2ccccc2C(F)(F)F)C1C(=O)Nc1cccc(F)c1F (stereo not drawn) [Compound 9] | 0 |

Each compound was assayed on pigweed (Amaranthus retroflexus) (assay: Test A preemergence, pigweed). Details: 125 g ai/ha, 0 to 100 scale.
Format: in vivo
Source text: as §1

| SMILES | Plant response rating, Pigweed |
| --- | --- |
| O=C1NCC(Cc2ccccc2C(F)(F)F)C1C(=O)Nc1cccc(F)c1F (stereo not drawn) [Compound 9] | 0 |

Same assay, conditions: 500 g ai/ha, 0 to 100 scale

| SMILES | Plant response rating, Pigweed |
| --- | --- |
| O=C1NCC(Cc2ccccc2C(F)(F)F)C1C(=O)Nc1cccc(F)c1F (stereo not drawn) [Compound 9] | 0 |

The compounds below were run on rice (Oryza sativa) (assay: Test B flooded paddy test, rice). Details: Flood, 500 g ai/ha; scale of 0 to 100 where 0 is no effect and 100 is complete control; 13 to 15 d.
Format: in vivo
Procedure: as §2

| SMILES | Plant response rating, Rice |
| --- | --- |
| O=C1NCC(Cc2ccccc2C(F)(F)F)C1C(=O)Nc1cccc(F)c1F (stereo not drawn) [Compound 9] | 0 |

These compounds were tested on ryegrass, It. (Italian ryegrass, Lolium multiflorum) (assay: Test A postemergence, ryegrass, It.). Details: 125 g ai/ha, 0 to 100 scale.
Format: in vivo
Source text: as §1

| SMILES | Plant response rating, Ryegrass, It. |
| --- | --- |
| O=C1NCC(Cc2ccccc2C(F)(F)F)C1C(=O)Nc1cccc(F)c1F (stereo not drawn) [Compound 9] | 0 |

Same assay, conditions: 500 g ai/ha, 0 to 100 scale

| SMILES | Plant response rating, Ryegrass, It. |
| --- | --- |
| O=C1NCC(Cc2ccccc2C(F)(F)F)C1C(=O)Nc1cccc(F)c1F (stereo not drawn) [Compound 9] | 0 |

What follows are compounds tested on barnyardgrass (Echinochloa crus-galli) (assay: Test A postemergence, barnyardgrass). Details: 125 g ai/ha, 0 to 100 scale.
Format: in vivo
Source text: as §1

| SMILES | Plant response rating, Barnyardgrass |
| --- | --- |
| O=C1NCC(Cc2ccccc2C(F)(F)F)C1C(=O)Nc1cccc(F)c1F (stereo not drawn) [Compound 9] | 10 |

Same assay, conditions: 500 g ai/ha, 0 to 100 scale

| SMILES | Plant response rating, Barnyardgrass |
| --- | --- |
| O=C1NCC(Cc2ccccc2C(F)(F)F)C1C(=O)Nc1cccc(F)c1F (stereo not drawn) [Compound 9] | 60 |

Each compound was assayed on pigweed (Amaranthus retroflexus) (assay: Test A postemergence, pigweed). Details: 125 g ai/ha, 0 to 100 scale.
Format: in vivo
Source text: as §1

| SMILES | Plant response rating, Pigweed |
| --- | --- |
| O=C1NCC(Cc2ccccc2C(F)(F)F)C1C(=O)Nc1cccc(F)c1F (stereo not drawn) [Compound 9] | 0 |

Same assay, conditions: 500 g ai/ha, 0 to 100 scale

| SMILES | Plant response rating, Pigweed |
| --- | --- |
| O=C1NCC(Cc2ccccc2C(F)(F)F)C1C(=O)Nc1cccc(F)c1F (stereo not drawn) [Compound 9] | 0 |

What follows are compounds tested on corn (Zea mays) (assay: Test A postemergence, corn). Details: 125 g ai/ha, 0 to 100 scale.
Format: in vivo
Source text: as §1

| SMILES | Plant response rating, Corn |
| --- | --- |
| O=C1NCC(Cc2ccccc2C(F)(F)F)C1C(=O)Nc1cccc(F)c1F (stereo not drawn) [Compound 9] | 0 |

Same assay, conditions: 500 g ai/ha, 0 to 100 scale

| SMILES | Plant response rating, Corn |
| --- | --- |
| O=C1NCC(Cc2ccccc2C(F)(F)F)C1C(=O)Nc1cccc(F)c1F (stereo not drawn) [Compound 9] | 0 |

The compounds below were run on barnyardgrass (Echinochloa crus-galli) (assay: Test A preemergence, barnyardgrass). Details: 125 g ai/ha, 0 to 100 scale.
Format: in vivo
Source text: as §1

| SMILES | Plant response rating, Barnyardgrass |
| --- | --- |
| O=C1NCC(Cc2ccccc2C(F)(F)F)C1C(=O)Nc1cccc(F)c1F (stereo not drawn) [Compound 9] | 0 |

Same assay, conditions: 500 g ai/ha, 0 to 100 scale

| SMILES | Plant response rating, Barnyardgrass |
| --- | --- |
| O=C1NCC(Cc2ccccc2C(F)(F)F)C1C(=O)Nc1cccc(F)c1F (stereo not drawn) [Compound 9] | 50 |

These compounds were tested on wheat (Triticum aestivum) (assay: Test A postemergence, wheat). Details: 125 g ai/ha, 0 to 100 scale.
Format: in vivo
Source text: as §1

| SMILES | Plant response rating, Wheat |
| --- | --- |
| O=C1NCC(Cc2ccccc2C(F)(F)F)C1C(=O)Nc1cccc(F)c1F (stereo not drawn) [Compound 9] | 0 |

Same assay, conditions: 500 g ai/ha, 0 to 100 scale

| SMILES | Plant response rating, Wheat |
| --- | --- |
| O=C1NCC(Cc2ccccc2C(F)(F)F)C1C(=O)Nc1cccc(F)c1F (stereo not drawn) [Compound 9] | 0 |

What follows are compounds tested on ducksalad (Heteranthera limosa) (assay: Test B flooded paddy test, ducksalad). Details: Flood, 500 g ai/ha; scale of 0 to 100 where 0 is no effect and 100 is complete control; 13 to 15 d.
Format: in vivo
Procedure: as §2

| SMILES | Plant response rating, Ducksalad |
| --- | --- |
| O=C1NCC(Cc2ccccc2C(F)(F)F)C1C(=O)Nc1cccc(F)c1F (stereo not drawn) [Compound 9] | 40 |

These compounds were tested on blackgrass (Alopecurus myosuroides) (assay: Test A postemergence, blackgrass). Details: 125 g ai/ha, 0 to 100 scale.
Format: in vivo
Source text: as §1

| SMILES | Plant response rating, Blackgrass |
| --- | --- |
| O=C1NCC(Cc2ccccc2C(F)(F)F)C1C(=O)Nc1cccc(F)c1F (stereo not drawn) [Compound 9] | 0 |

Same assay, conditions: 500 g ai/ha, 0 to 100 scale

| SMILES | Plant response rating, Blackgrass |
| --- | --- |
| O=C1NCC(Cc2ccccc2C(F)(F)F)C1C(=O)Nc1cccc(F)c1F (stereo not drawn) [Compound 9] | 0 |

The compounds below were run on foxtail, giant (giant foxtail, Setaria faberii) (assay: Test A postemergence, foxtail, giant). Details: 125 g ai/ha, 0 to 100 scale.
Format: in vivo
Source text: as §1

| SMILES | Plant response rating, Foxtail, Giant |
| --- | --- |
| O=C1NCC(Cc2ccccc2C(F)(F)F)C1C(=O)Nc1cccc(F)c1F (stereo not drawn) [Compound 9] | 0 |

Same assay, conditions: 500 g ai/ha, 0 to 100 scale

| SMILES | Plant response rating, Foxtail, Giant |
| --- | --- |
| O=C1NCC(Cc2ccccc2C(F)(F)F)C1C(=O)Nc1cccc(F)c1F (stereo not drawn) [Compound 9] | 0 |

What follows are compounds tested on ryegrass, It. (Italian ryegrass, Lolium multiflorum) (assay: Test A preemergence, ryegrass, It.). Details: 125 g ai/ha, 0 to 100 scale.
Format: in vivo
Source text: as §1

| SMILES | Plant response rating, Ryegrass, It. |
| --- | --- |
| O=C1NCC(Cc2ccccc2C(F)(F)F)C1C(=O)Nc1cccc(F)c1F (stereo not drawn) [Compound 9] | 0 |

Same assay, conditions: 500 g ai/ha, 0 to 100 scale

| SMILES | Plant response rating, Ryegrass, It. |
| --- | --- |
| O=C1NCC(Cc2ccccc2C(F)(F)F)C1C(=O)Nc1cccc(F)c1F (stereo not drawn) [Compound 9] | 0 |

Each compound was assayed on sedge, umbrella (small-flower umbrella sedge, Cyperus difformis) (assay: Test B flooded paddy test, sedge, umbrella). Details: Flood, 500 g ai/ha; scale of 0 to 100 where 0 is no effect and 100 is complete control; 13 to 15 d.
Format: in vivo
Procedure: as §2

| SMILES | Plant response rating, Sedge, Umbrella |
| --- | --- |
| O=C1NCC(Cc2ccccc2C(F)(F)F)C1C(=O)Nc1cccc(F)c1F (stereo not drawn) [Compound 9] | 0 |

The compounds below were run on kochia (Kochia scoparia) (assay: Test A postemergence, kochia). Details: 125 g ai/ha, 0 to 100 scale.
Format: in vivo
Source text: as §1

| SMILES | Plant response rating, Kochia |
| --- | --- |
| O=C1NCC(Cc2ccccc2C(F)(F)F)C1C(=O)Nc1cccc(F)c1F (stereo not drawn) [Compound 9] | 0 |

Same assay, conditions: 500 g ai/ha, 0 to 100 scale

| SMILES | Plant response rating, Kochia |
| --- | --- |
| O=C1NCC(Cc2ccccc2C(F)(F)F)C1C(=O)Nc1cccc(F)c1F (stereo not drawn) [Compound 9] | 30 |

Each compound was assayed on foxtail, giant (giant foxtail, Setaria faberii) (assay: Test A preemergence, foxtail, giant). Details: 125 g ai/ha, 0 to 100 scale.
Format: in vivo
Source text: as §1

| SMILES | Plant response rating, Foxtail, Giant |
| --- | --- |
| O=C1NCC(Cc2ccccc2C(F)(F)F)C1C(=O)Nc1cccc(F)c1F (stereo not drawn) [Compound 9] | 0 |

Same assay, conditions: 500 g ai/ha, 0 to 100 scale

| SMILES | Plant response rating, Foxtail, Giant |
| --- | --- |
| O=C1NCC(Cc2ccccc2C(F)(F)F)C1C(=O)Nc1cccc(F)c1F (stereo not drawn) [Compound 9] | 50 |
